Assay results from BigSolDB 2.1.

Conditions: in NMP

O=C1OC(=O)[C@H]2[C@@H]1[C@@H]1C=C[C@H]2C1
Conditions | solubility (mole fraction)
278.15 K | 0.112
283.15 K | 0.126
288.15 K | 0.14
293.15 K | 0.156
298.15 K | 0.172
303.15 K | 0.19
308.15 K | 0.209
313.15 K | 0.225
318.15 K | 0.245
323.15 K | 0.265
